# Measured values reported in patent US11970463B2, “Compounds and their use” (ASTRAZENECA AB, priority 2021, dated 2024).
# Like-named read-outs stand apart in the source and are kept apart here.
# Experiments:
# [1] = Solubility (Test F), McIlvaine buffer pH 6.5; format: physicochemical; details: McIlvaine buffer pH 6.5, 25° C., 24 to 72 h, theoretical maximum 200 μM; for solubility: disodium hydrogenphosphate-citric acid (McIlvaine) buffer, 25 °C, pH 6.5, aqueous buffer, thermodynamic from solid
# [2] = biological target: T1, Human NLRP3 (Homo sapiens (Human), UniProt Q96P20)
# T1 sequence (Q96P20 whole entry): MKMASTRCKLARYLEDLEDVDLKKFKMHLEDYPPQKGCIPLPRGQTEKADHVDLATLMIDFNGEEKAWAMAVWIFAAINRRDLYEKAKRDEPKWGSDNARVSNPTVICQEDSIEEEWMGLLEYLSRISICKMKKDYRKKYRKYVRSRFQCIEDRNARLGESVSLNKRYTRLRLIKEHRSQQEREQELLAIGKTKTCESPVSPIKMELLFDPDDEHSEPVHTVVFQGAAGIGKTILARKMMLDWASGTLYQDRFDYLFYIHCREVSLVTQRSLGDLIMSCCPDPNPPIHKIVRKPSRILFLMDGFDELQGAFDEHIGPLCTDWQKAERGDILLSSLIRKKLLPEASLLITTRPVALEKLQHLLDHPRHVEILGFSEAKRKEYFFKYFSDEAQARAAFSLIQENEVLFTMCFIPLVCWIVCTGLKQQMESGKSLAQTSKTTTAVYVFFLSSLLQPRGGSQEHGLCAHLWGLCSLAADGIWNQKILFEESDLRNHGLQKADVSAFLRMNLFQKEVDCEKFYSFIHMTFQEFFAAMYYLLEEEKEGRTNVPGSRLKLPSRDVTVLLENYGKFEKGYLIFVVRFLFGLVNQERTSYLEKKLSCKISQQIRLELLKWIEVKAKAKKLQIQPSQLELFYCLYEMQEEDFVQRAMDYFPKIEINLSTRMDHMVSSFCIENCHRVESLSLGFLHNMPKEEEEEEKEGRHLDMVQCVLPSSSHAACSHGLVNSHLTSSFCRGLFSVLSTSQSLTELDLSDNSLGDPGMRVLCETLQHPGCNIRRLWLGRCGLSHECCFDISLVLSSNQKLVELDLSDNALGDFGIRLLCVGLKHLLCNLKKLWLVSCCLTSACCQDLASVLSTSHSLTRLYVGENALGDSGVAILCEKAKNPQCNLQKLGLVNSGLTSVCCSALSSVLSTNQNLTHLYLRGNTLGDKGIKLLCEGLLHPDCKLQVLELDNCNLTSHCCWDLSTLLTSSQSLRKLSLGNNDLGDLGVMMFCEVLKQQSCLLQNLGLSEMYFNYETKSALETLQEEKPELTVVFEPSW
# [3] = biological target: T1, Human NLRP3; remark: listed apart in the source
# [4] = biological target: T1, Human NLRP3; test: Human NLRP3 speck formation assay (Test A), nigericin triggered ASC-speck formation in ASC-GFP reporter monocytes
# [5] = biological target: hERG (Homo sapiens (Human), UniProt Q12809); test: hERG assay (Test D), SyncroPatch 384PE patch clamp, hERG-expressing CHO cells; format: cell-based; details: rt
# Sequence of hERG (Q12809 whole entry): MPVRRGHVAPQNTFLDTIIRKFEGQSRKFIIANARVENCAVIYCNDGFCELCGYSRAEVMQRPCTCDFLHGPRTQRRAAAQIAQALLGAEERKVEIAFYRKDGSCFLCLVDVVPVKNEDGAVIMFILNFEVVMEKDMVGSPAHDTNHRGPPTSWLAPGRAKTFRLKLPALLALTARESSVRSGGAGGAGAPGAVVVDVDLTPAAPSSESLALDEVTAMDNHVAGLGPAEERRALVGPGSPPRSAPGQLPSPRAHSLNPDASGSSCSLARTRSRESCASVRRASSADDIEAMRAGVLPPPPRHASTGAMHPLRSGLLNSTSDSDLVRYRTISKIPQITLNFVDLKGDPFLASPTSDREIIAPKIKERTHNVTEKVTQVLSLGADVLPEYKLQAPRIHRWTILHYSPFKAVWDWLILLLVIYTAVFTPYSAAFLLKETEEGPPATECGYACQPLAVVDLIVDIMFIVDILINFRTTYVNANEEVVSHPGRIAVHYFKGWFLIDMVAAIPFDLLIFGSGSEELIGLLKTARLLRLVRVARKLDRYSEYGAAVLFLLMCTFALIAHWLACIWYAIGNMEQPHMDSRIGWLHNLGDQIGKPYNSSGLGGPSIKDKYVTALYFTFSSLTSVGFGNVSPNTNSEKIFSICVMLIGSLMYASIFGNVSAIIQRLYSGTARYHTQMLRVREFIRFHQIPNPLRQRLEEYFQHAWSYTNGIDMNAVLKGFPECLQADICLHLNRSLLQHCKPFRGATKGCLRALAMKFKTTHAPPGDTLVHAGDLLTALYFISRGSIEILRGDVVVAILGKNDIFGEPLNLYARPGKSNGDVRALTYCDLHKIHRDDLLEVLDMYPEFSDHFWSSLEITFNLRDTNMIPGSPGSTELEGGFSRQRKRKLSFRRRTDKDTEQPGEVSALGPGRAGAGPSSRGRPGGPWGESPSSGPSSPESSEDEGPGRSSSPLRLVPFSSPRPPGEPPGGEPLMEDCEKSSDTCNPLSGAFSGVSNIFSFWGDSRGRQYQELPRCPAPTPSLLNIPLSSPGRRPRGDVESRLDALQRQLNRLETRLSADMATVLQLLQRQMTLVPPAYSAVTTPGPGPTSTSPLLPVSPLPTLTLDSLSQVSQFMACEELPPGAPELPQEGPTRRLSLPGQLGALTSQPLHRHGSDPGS
# [6] = Solubility (Test E); format: physicochemical
# [7] = Test C IC50, IL-1β release, THP-1 cells, LPS 2 μg/mL 24 h, BzATP 1 mM
Test F Solubility [1] [µg/mL],"IC50 [2, 7] [nM]",IC50 [3] [nM],EC50 [4] [nM],solubility [1] [µg/mL],solubility [6] [µM],IC50 [2] [nM],Compound,IC50 [5] [nM]
10.9,69,71,212,,,,"Oc1cc(C(F)(F)F)ccc1-c1nnc(N[C@H]2CC[C@@H](O)C2)c2ccccc12 (single isomer, unassigned) [Example 35]",
,46,122,206,2.6,,,"Oc1cc(C(F)(F)F)ccc1-c1nnc(N[C@H]2C[C@@H](O)C2)c2ccccc12 [Example 33, 2-(4-(((1s,3s)-3-hydroxycyclobutyl)amino)phthalazin-1-yl)-5-(trifluoromethyl)phenol]",
,15,,142,14.1,,,"CC(C)(O)CNc1nnc(-c2c(O)cc(Cl)cc2F)c2ccncc12 [Example 73, 5-chloro-3-fluoro-2-[4-[(2-hydroxy-2-methyl-propyl)amino]pyrido[3,4-d]pyridazin-1-yl]phenol]",> 40000
,,10,124,,,,"Oc1cc(F)ccc1-c1nnc(N[C@@H]2CCCC[C@H]2O)c2cnccc12 [Example 75, 5-fluoro-2-(4-(((1R,2R)-2-hydroxycyclohexyl)amino)pyrido[3,4-d]pyridazin-1-yl)phenol]",> 40000
,26,,220,14.7,155,,"Cc1ccc2c(NC[C@H](O)CO)nnc(-c3ccc(C(F)(F)F)cc3O)c2c1 [Example 15, (2S)-3-[[4-[2-hydroxy-4-(trifluoromethyl)phenyl]-6-methyl-phthalazin-1-yl]amino]propane-1,2-diol]",
,17,45,122,7.9,6,,"OC[C@@H](O)CNc1nnc(-c2ccc(Cl)cc2O)c2ccccc12 [Example 5, (2S)-3-[[4-(4-chloro-2-hydroxy-phenyl)phthalazin-1-yl]amino]propane-1,2-diol]",
,2,,11,42.4,,,"Oc1cc(Cl)ccc1-c1nnc(N[C@@H]2CCCC[C@H]2O)c2cnccc12 [Example 58, 5-chloro-2-[4-[[(1R,2R)-2-hydroxycyclohexyl]amino]pyrido[3,4-d]pyridazin-1-yl]phenol]",> 40000
,6,,52,51.9,447,,"Oc1cc(C2CC2)ccc1-c1nnc(N[C@@H]2CCC[C@H](O)C2)c2cnccc12 [Example 52, 5-cyclopropyl-2-[4-[[(1R,3S)-3-hydroxycyclohexyl]amino]pyrido[3,4-d]pyridazin-1-yl]phenol]",22000
,40,99,201,> 79.1,130,,"OC[C@@H](O)CNc1nnc(-c2ccc(OC(F)(F)F)cc2O)c2ccccc12 [Example 6, (2S)-3-[[4-[2-hydroxy-4-(trifluoromethoxy)phenyl]phthalazin-1-yl]amino]propane-1,2-diol]",
,34,,562,2.1,9,,"Oc1cc(C(F)(F)F)ccc1-c1nnc(N[C@@H]2CCCCC[C@H]2O)c2ccccc12 (racemic) [Example 27, rac-(1R,2R)-2-[[4-[2-hydroxy-4-(trifluoromethyl)phenyl]phthalazin-1-yl]amino]cycloheptanol]",
,,32,339,,,,"C[C@]1(O)C[C@@H](Nc2nnc(-c3ccc(C(F)(F)F)cc3O)c3ccccc23)C1 [Example 37, 2-(4-(((1s,3s)-3-hydroxy-3-methylcyclobutyl)amino)phthalazin-1-yl)-5-(trifluoromethyl)phenol]",29000
,,24,67,1.5,3,8,"C[C@]1(O)C[C@@H](Nc2nnc(-c3c(O)cc(C(F)(F)F)cc3F)c3ccncc23)C1 [Example 67, 3-fluoro-2-(4-(((1s,3s)-3-hydroxy-3-methylcyclobutyl)amino)pyrido[3,4-d]pyridazin-1-yl)-5-(trifluoromethyl)phenol]",
,63,141,248,1.4,,,"Oc1cc(C(F)(F)F)ccc1-c1nnc(N[C@H]2C[C@H](O)C2)c2ccccc12 [Example 32, 2-(4-(((1r,3r)-3-hydroxycyclobutyl)amino)phthalazin-1-yl)-5-(trifluoromethyl)phenol]",
,10,46,162,8.6,206,,"Oc1cc(C(F)(F)F)ccc1-c1nnc(N[C@@H]2CCC[C@H]2O)c2ccccc12 [Example 20, 2-[4-[[(1R,2R)-2-hydroxycyclopentyl]amino]phthalazin-1-yl]-5-(trifluoromethyl)phenol]",
,86,169,290,27.5,,,"Oc1cc(C(F)(F)F)ccc1-c1nnc(N[C@H]2CC[C@H](O)C2)c2ccccc12 [Example 17, 2-[4-[[(1S,3S)-3-hydroxycyclopentyl]amino]phthalazin-1-yl]-5-(trifluoromethyl)phenol]",
,< 3,,16,40.1,636,,"Oc1cc(Cl)ccc1-c1nnc(N[C@@H]2CCC[C@H](O)C2)c2cnccc12 [Example 44, 5-chloro-2-[4-[[(1R,3S)-3-hydroxycyclohexyl]amino]pyrido[3,4-d]pyridazin-1-yl]phenol]",> 40000
,602,,1980,8.3,148,,"Oc1cc(C(F)(F)F)ccc1-c1nnc(N[C@H]2CCCC[C@@H]2O)c2ccccc12 [Example 26, 2-[4-[[(1S,2S)-2-hydroxycyclohexyl]amino]phthalazin-1-yl]-5-(trifluoromethyl)phenol]",
,,114,373,1.1,11,37,"C[C@]1(O)C[C@@H](Nc2nnc(-c3ccc(Cl)c(F)c3O)c3ccncc23)C1 [Example 65, 3-chloro-2-fluoro-6-(4-(((1s,3s)-3-hydroxy-3-methylcyclobutyl)amino)pyrido[3,4-d]pyridazin-1-yl)phenol]",
,,,128,,,,"Oc1cccc(F)c1-c1nnc(N[C@@H]2CCCC[C@H]2O)c2cnccc12 [Example 76, 3-fluoro-2-(4-(((1R,2R)-2-hydroxycyclohexyl)amino)pyrido[3,4-d]pyridazin-1-yl)phenol]",> 40000
,,149,301,13.6,29,38,"C[C@]1(O)C[C@@H](Nc2nnc(-c3c(O)cc(F)cc3F)c3ccncc23)C1 [Example 69, 3,5-difluoro-2-(4-(((1s,3s)-3-hydroxy-3-methylcyclobutyl)amino)pyrido[3,4-d]pyridazin-1-yl)phenol]",
,23,82,207,> 65.1,> 1000,,"Cc1ccc(-c2nnc(NC[C@H](O)CO)c3ccccc23)c(O)c1 [Example 11, (2S)-3-[[4-(2-hydroxy-4-methyl-phenyl)phthalazin-1-yl]amino]propane-1,2-diol]",
,187,,2410,9.2,172,,"Oc1cc(C(F)(F)F)ccc1-c1nnc(N[C@H]2CCC[C@@H]2O)c2ccccc12 [Example 22, 2-[4-[[(1S,2S)-2-hydroxycyclopentyl]amino]phthalazin-1-yl]-5-(trifluoromethyl)phenol]",
